Assay results: ChEMBL document CHEMBL6114980, “Single or double lipid-modified ultra-short antimicrobial peptides for treating infections caused by resistant bacteria” (Eur J Med Chem, 2025)

Assays:
Format in all cases: functional
Staphylococcus aureus [1] = assay: Antibacterial activity against methicillin-resistant Staphylococcus aureus 75 assessed as reduction in bacterial growth incubated for 18 to 24 hrs by broth microdilution method; conditions: time 18-24 hrs
Escherichia coli [2] = assay: Antibacterial activity against Escherichia coli 850 assessed as reduction in bacterial growth incubated for 18 to 24 hrs by broth microdilution method; conditions: time 18-24 hrs
Pseudomonas aeruginosa [3] = assay: Antibacterial activity against Pseudomonas aeruginosa ATCC 27853 assessed as reduction in bacterial growth incubated for 18 to 24 hrs by broth microdilution method; conditions: time 18-24 hrs
Staphylococcus aureus [4] = assay: Antibacterial activity against Staphylococcus aureus assessed as reduction in survival bacterial growth in presence of Mgcl2 measured after 18 to 24 hrs (reference value: 8 microM); conditions: time 18-24 hrs
Acinetobacter baumannii [5] = assay: Antibacterial activity against Acinetobacter baumannii 5444 assessed as reduction in bacterial growth incubated for 18 to 24 hrs by broth microdilution method; conditions: time 18-24 hrs
Staphylococcus aureus [6] = assay: Antibacterial activity against Staphylococcus aureus 125 assessed as reduction in bacterial growth incubated for 18 to 24 hrs by broth microdilution method; conditions: time 18-24 hrs
Staphylococcus aureus [7] = assay: Antibacterial activity against methicillin-resistant Staphylococcus aureus ATCC 33591 assessed as reduction in bacterial growth incubated for 18 to 24 hrs by broth microdilution method; conditions: time 18-24 hrs
Staphylococcus aureus [8] = assay: Antibacterial activity against Staphylococcus aureus assessed as reduction in survival bacterial growth in presence of KCl measured after 18 to 24 hrs (reference value: 8 microM); conditions: time 18-24 hrs
Escherichia coli [9] = assay: Antibacterial activity against Escherichia coli assessed as reduction in survival bacterial growth by measuring fold change in presence of MgCl2 measured after 18 to 24 hrs; conditions: time 18-24 hrs
Klebsiella pneumoniae [10] = assay: Antibacterial activity against Klebsiella pneumoniae ATCC 700603 assessed as reduction in bacterial growth incubated for 18 to 24 hrs by broth microdilution method; conditions: time 18-24 hrs
Acinetobacter baumannii [11] = assay: Antibacterial activity against Acinetobacter baumannii ATCC 19606 assessed as reduction in bacterial growth incubated for 18 to 24 hrs by broth microdilution method; conditions: time 18-24 hrs
Escherichia coli [12] = assay: Bactericidal activity against Escherichia coli 25922 assessed as eradication of bacteria at 2 times MIC measured within 1 hr by time-kill assay relative to control
Klebsiella pneumoniae [13] = assay: Antibacterial activity against Klebsiella pneumoniae ATCC 700603 infected in male BALB/c mouse lung infection model assessed as reduction in bacterial load at 5 mg/kg, ip measured after 6 to 36 hrs (reference value: 1.77 10^6CFU/mg); conditions: time 6-36 hrs
Staphylococcus aureus [14] = assay: Antibacterial activity against Staphylococcus aureus assessed as reduction in survival bacterial growth in presence of NaCl measured after 18 to 24 hrs (reference value: 8 microM); conditions: time 18-24 hrs
Pseudomonas aeruginosa [15] = assay: Antibacterial activity against Pseudomonas aeruginosa 124 assessed as reduction in bacterial growth incubated for 18 to 24 hrs by broth microdilution method; conditions: time 18-24 hrs
Escherichia coli [16] = assay: Antibacterial activity against Escherichia coli assessed as reduction in survival bacterial growth by measuring fold change in presence of ZnCl2 measured after 18 to 24 hrs; conditions: time 18-24 hrs
Staphylococcus aureus [17] = assay: Antibacterial activity against Staphylococcus aureus 794 assessed as reduction in bacterial growth incubated for 18 to 24 hrs by broth microdilution method; conditions: time 18-24 hrs
Staphylococcus aureus [18] = assay: Antibacterial activity against Staphylococcus aureus assessed as reduction in survival bacterial growth by measuring fold change in presence of MgCl2 measured after 18 to 24 hrs; conditions: time 18-24 hrs
Escherichia coli [19] = assay: Antibacterial activity against Escherichia coli assessed as reduction in survival bacterial growth in presence of ZnCl2 measured after 18 to 24 hrs (reference value: 2 microM); conditions: time 18-24 hrs
Escherichia coli [20] = assay: Antibacterial activity against Escherichia coli assessed as reduction in survival bacterial growth in presence of FeCl3 measured after 18 to 24 hrs (reference value: 2 microM); conditions: time 18-24 hrs
Staphylococcus aureus [21] = assay: Antibacterial activity against Staphylococcus aureus assessed as reduction in survival bacterial growth in presence of FeCl3 measured after 18 to 24 hrs (reference value: 8 microM); conditions: time 18-24 hrs
Staphylococcus aureus [22] = assay: Antibacterial activity against Staphylococcus aureus assessed as reduction in survival bacterial growth by measuring fold change in presence of NaCl measured after 18 to 24 hrs; conditions: time 18-24 hrs
Escherichia coli [23] = assay: Antibacterial activity against Escherichia coli assessed as reduction in survival bacterial growth in presence of MgCl2 measured after 18 to 24 hrs (reference value: 2 microM); conditions: time 18-24 hrs
Escherichia coli [24] = assay: Antibacterial activity against Escherichia coli assessed as reduction in survival bacterial growth in presence of KCl measured after 18 to 24 hrs (reference value: 2 microM); conditions: time 18-24 hrs
Staphylococcus aureus [25] = assay: Antibacterial activity against Staphylococcus aureus assessed as reduction in survival bacterial growth in presence of ZnCl2 measured after 18 to 24 hrs (reference value: 8 microM); conditions: time 18-24 hrs
Escherichia coli [26] = assay: Antibacterial activity against Escherichia coli 780 assessed as reduction in bacterial growth incubated for 18 to 24 hrs by broth microdilution method; conditions: time 18-24 hrs
Enterococcus faecalis = assay: Antibacterial activity against Enterococcus faecalis ATCC 29212 assessed as reduction in bacterial growth incubated for 18 to 24 hrs by broth microdilution method; conditions: time 18-24 hrs
Escherichia coli [27] = assay: Antibacterial activity against Escherichia coli assessed as reduction in survival bacterial growth in presence of NaCl measured after 18 to 24 hrs (reference value: 2 microM); conditions: time 18-24 hrs
Acinetobacter baumannii [28] = assay: Antibacterial activity against Acinetobacter baumannii 92359 assessed as reduction in bacterial growth incubated for 18 to 24 hrs by broth microdilution method; conditions: time 18-24 hrs
Staphylococcus aureus [29] = assay: Antibacterial activity against Staphylococcus aureus ATCC 25923 assessed as reduction in bacterial growth incubated for 18 to 24 hrs by broth microdilution method; conditions: time 18-24 hrs
Pseudomonas aeruginosa [30] = assay: Antibacterial activity against Pseudomonas aeruginosa 6434N assessed as reduction in bacterial growth incubated for 18 to 24 hrs by broth microdilution method; conditions: time 18-24 hrs
Escherichia coli [31] = assay: Antibacterial activity against Escherichia coli ATCC 25922 assessed as reduction in bacterial growth incubated for 18 to 24 hrs by broth microdilution method; conditions: time 18-24 hrs
[32] = tested on: Staphylococcus epidermidis; assay: Antibacterial activity against Staphylococcus epidermidis ATCC 12228 assessed as reduction in bacterial growth incubated for 18 to 24 hrs by broth microdilution method; conditions: time 18-24 hrs
Escherichia coli [33] = assay: Antibacterial activity against Escherichia coli assessed as reduction in survival bacterial growth by measuring fold change in presence of NaCl measured after 18 to 24 hrs; conditions: time 18-24 hrs

CC(C)CCCCC(=O)N[C@@H](CCN)C(=O)N[C@H](C(=O)N[C@@H](CCN)C(=O)N[C@H]1CCNC(=O)[C@H]([C@@H](C)O)NC(=O)[C@H](CCN)NC(=O)[C@H](CCN)NC(=O)[C@H](CC(C)C)NC(=O)[C@@H](Cc2ccccc2)NC(=O)[C@H](CCN)NC1=O)[C@@H](C)O.CC[C@H](C)CCCCC(=O)N[C@@H](CCN)C(=O)N[C@H](C(=O)N[C@@H](CCN)C(=O)N[C@H]1CCNC(=O)[C@H]([C@@H](C)O)NC(=O)[C@H](CCN)NC(=O)[C@H](CCN)NC(=O)[C@H](CC(C)C)NC(=O)[C@@H](Cc2ccccc2)NC(=O)[C@H](CCN)NC1=O)[C@@H](C)O
4 µM: MIC (Escherichia coli [2]) | MIC (Pseudomonas aeruginosa [3]) | MIC (Klebsiella pneumoniae [10]) | MIC (Acinetobacter baumannii [11]) | MIC (Escherichia coli [26])
8 µM: MIC (Staphylococcus aureus [6]) | MIC (Staphylococcus aureus [8]) | MIC (Staphylococcus aureus [21]) | MIC (Staphylococcus aureus [25]) | MIC (Staphylococcus aureus [29]) | MIC [32]
16 µM: MIC (Staphylococcus aureus [1]) | MIC (Staphylococcus aureus [4]) | MIC (Staphylococcus aureus [7]) | MIC (Pseudomonas aeruginosa [15]) | MIC (Staphylococcus aureus [17])
100%: Activity (Escherichia coli [12])
32 µM: MIC (Acinetobacter baumannii [5]) | MIC (Acinetobacter baumannii [28])
2 µM: MIC (Escherichia coli [20]) | MIC (Escherichia coli [23]) | MIC (Escherichia coli [24]) | MIC (Escherichia coli [27]) | MIC (Pseudomonas aeruginosa [30]) | MIC (Escherichia coli [31])
1.54 10^4CFU/mg: Activity (Klebsiella pneumoniae [13])
128 µM: MIC (Staphylococcus aureus [14]) | MIC (Enterococcus faecalis)
2: fold change (FC) (Escherichia coli [9]) | fold change (FC) (Escherichia coli [16]) | fold change (FC) (Staphylococcus aureus [18])
16: fold change (FC) (Staphylococcus aureus [22]) | fold change (FC) (Escherichia coli [33])
1 µM: MIC (Escherichia coli [19])
